What was measured:
[1] = test system: bacterial speck (Pseudomonas syringae pv. tomato); test: Field trial, foliar spray against bacterial speck in tomatoes (Example 18); assay type: in vivo, tomatoes (Lycopersicon esculentum); conditions: after three treatment sprays
[2] = test system: alternaria leaf blight (Alternaria brassicicola); test: Field trial, foliar spray against alternaria leaf blight in cauliflower and broccoli (Example 23); assay type: in vivo
Description: (§1) Silver (III) periodate was tested as a fungicidal foliar spray treatment against alternaria leaf blight (Alternaria brassicicola) and downy mildew (Peronospora paratsitica Lui) in cauliflower (Brassica oleracea var. botrytis) and broccoli (Brassica oleracea […]), respectively.
Preparation of Seed, Preparation of Field, Seeding, Plot Maintenance: Two trials were conducted in organic soil (pH ≈7.2, organic matter ≈47.2%). Cauliflower and broccoli were seeded into 128-cell Plastomer plug trays in early June and hand transplanted in early July in two rows, 86 cm apart and 9 meter in length, with an in-row spacing of 40 cm. A randomized complete block arrangement with four replicates per treatment was used. Treatments were applied in July and August using a CO2 backpack sprayer equipped with 4 TeeJet D-2 hollow cone nozzles spaced 40 cm apart and calibrated to deliver 250 L/ha at 240 kPa.
This was immediately followed by irrigation to achieve leaf wetness. The plots were treated prior to inoculation.
Preparation of Spray Treatment Solutions and Inoculum: The treatment rate for silver (III) periodate was 0.16 kg/ha. It was also combined (at this rate) with Bravo, which was delivered at 2.5L/ha.
Data Collection: Plants were monitored weekly to determine when lesions were first observed. Plants (15 per rep, randomly selected and marked for continued assessment) were assessed twice during the growing season for number of lesions per leaf. As heads mature, 15 heads per rep in total were harvested and assessed from each experimental unit. The number of Alternaria le sions per leaf were counted. Healthy leaves were counted and trimmed head weights were recorded to indicate marketable yield.
Treatments compared were oxysilver nitrate, silver (III) periodate, Bravo, Bravo+oxysilver nitrate, Bravo+silver (III) periodate, and water (control).

[3] = test system: Escherichia coli (ATCC 25922); test: MBEC P&G assay in dilutions of feces; assay type: cell-based
Description: The challenge time was 4 hours. The tested concentration range for both silver compounds was 500 to 7.8 ppm.

[4] = test system: relevant clinical pathogens in biofilm form (Pseudomonas aeruginosa, MRSA, MRSE, Acinetobacter baumanii, Listeria monocytogenes, VRE, Escherichia coli, Candida …); test: MBEC efficacy testing against relevant clinical pathogens in saline; assay type: cell-based; conditions: challenge time 4 hours, 2000 ppm to 15.62 ppm
Description: The antimicrobial effect of silver (III) periodate and silver nitrate (2000 ppm to 15.62 ppm) in saline was tested against Pseudomonas aeruginosa, Staphylococcus aureus (MRSA), Staphylococcus epidermidis (MRSE), Acinetobacter baumanii, Listeria monocytogenes, Enterococcus faecalis (VRE), Escherichia coli, Candida albicans, Klebsiella pneumonia, Enterobacter aerongenes. The challenge time was 4 hours.

P. aeruginosa ATCC 27853 = test: Silver (III) periodate efficacy testing in the presence of Cl-, SO4 2-, and PO4 3-; assay type: cell-based; conditions: water, 1% NaCl, 1% K2SO4 and 1% K2HPO4 solutions; challenge time 30 minutes; tested 1.5-200 ppm
Description: Silver (III) periodate was tested for efficacy in water, 1% NaCl, 1% K2SO4, and 1% K2HPO4 solutions, and compared with silver nitrate. The test solutions were tested against P. aeruginosa ATCC 27853. The challenge time was 30 minutes. Silver (III) periodate and silver nitrate were tested at range of 1.5-200 ppm.

[5] = test system: downy mildew (Peronospora paratsitica Lui); test: Field trial, foliar spray against downy mildew (Example 24); assay type: in vivo; conditions: compared with the check
Description: as §1
See Example 23 for Preparation of Tomato Seed; Preparation of Field; Seeding; Plot Maintenance; Preparation of Spray Treatment Solutions and Inoculum; Spray Treatment Procedure; and Data Collection.

bacterial speck = test: Field trial, foliar spray against bacterial speck in tomato (Example 22); assay type: in vivo; conditions: compared with the standard Kocide and Kocide+Dithane
Description: Silver (III) periodate was tested as a foliar spray treatment fungicide against bacterial speck in tomato.
See Example 22 for Preparation of Tomato Seed; Preparation of Field; Seeding; Plot Maintenance; Preparation of Spray Treatment Solutions and Inoculum; Spray Treatment Procedure; and Data Collection.
The treatments compared were water (control), oxysilver nitrate, silver (III) periodate, Dithane, Kocide 2000, Dithane DG 75+Kocide 2000, oxysilver nitrate+Dithane, and silver (III) periodate+Dithane, Serenade Max, and Serenade Max+oxysilver nitrate.

[6] = test system: Escherichia coli (ATCC 25922); test: MBEC P&G assay in dilutions of mucin; assay type: cell-based
Description: The effects of silver (III) periodate and silver nitrate in different dilutions of mucin (2.0%, 1.0%, 0.5%, 0.25%, 0.12%, 0.06%) were tested using the MBEC™ P&G assay against Escherichia coli (ATCC 25922)The challenge time was 4 hours. The tested concentration range for both silver compounds was 500 to 7.8 ppm.

[7] = test system: bacterial canker (Clavibacter michiganensis pv. michiganensis); test: Field trial, foliar spray against bacterial canker in tomatoes (Example 19); assay type: in vivo, tomatoes (Lycopersicon esculentum)
Description: Silver (III) periodate was tested as a bactericidal foliar spray treatment against bacterial canker (Clavibacter michiganensis pv. michiganensis) in tomatoes (Lycopersicon esculentum).
See Example 18 for Preparation of Tomato Seed; Preparation of Field; Seeding; Plot Maintenance; Preparation of Spray Treatment Solutions and Inoculum; Spray Treatment Procedure; and Data Collection.

[8] = test system: Escherichia coli (ATCC 25922); test: MBEC P&G assay in dilutions of urine; assay type: cell-based
Description: The effects of silver (III) periodate and silver nitrate in different dilutions of urine (0.001%, 0.01%, 0.1%, 1%, 10%, 50%) using the MBEC™ P&G assay were tested against Escherichia coli (ATCC 25922)The challenge time was 4 hours. The tested concentration range for both silver compounds was 500 to 7.8 ppm.

[9] = test system: Escherichia coli ATCC 25922; test: MBEC P&G assay in dilutions of human serum; assay type: cell-based
Description: (§2) The effects of silver (III) periodate and silver nitrate were tested in different dilutions of human serum (0.001%, 0.01%, 0.1%, 1%, 10%, 50%) using the MBECTM P&G assay against relevant clinical human pathogens Escherichia coli, Staphylococcus aureus (MRSA), and Candida albicans. The challenge time was 4 hours. The tested concentration range for the silver compounds was 500 to 7.8 ppm.

[10] = test system: Candida albicans ATCC 28367; test: MBEC P&G assay in dilutions of human serum; assay type: cell-based
Description: as §2

[11] = test system: Staphylococcus aureus (MRSA) 456; test: MBEC P&G assay in dilutions of human serum; assay type: cell-based
Description: as §2

## [Ag+3].[Na+].[Na+].[Na+].[Na+].[Na+].[O-][I+]([O-])([O-])([O-])([O-])O.[O-][I+]([O-])([O-])([O-])([O-])O [silver (III) periodate, sodium diperiodatoargentate]
[1]
  disease severity on foliage: best at reducing disease severity on foliage
[2]; broccoli
  harvest weights: higher harvest weights (not significant)
[2]; compared with the check, broccoli
  Alternaria lesions per leaf: significantly lower Alternaria lesions per leaf than the check
[2]; second result paragraph, crop not given
  Alternaria lesions per leaf: higher Alternaria lesions per leaf than the check and other treatments
[3]; 1.56% feces
  MBC, effective level: > 15.6 ppm
  MBEC, effective level: 125 ppm
[3]; 3.13% feces
  MBC, effective level: > 31.25 ppm
  MBEC, effective level: 250 ppm
[3]; 6.25% feces
  MBC, effective level: > 62.5 ppm
  MBEC, effective level: 125 ppm
[3]; 12.5% feces
  MBC, effective level: > 62.5 ppm
[3]; 25% feces
  MBC, effective level: higher than 125 ppm
[3]; 50% feces
  MBC, effective level: higher than 125 ppm
[3]; concentrations of feces higher than 12.5%, ineffective at highest tested concentration
  MBEC, effective level: > 500 ppm
[4]
  MBEC (minimum biofilm eradication concentration) killing activity: higher killing activity than silver nitrate against most of the tested strains
P. aeruginosa ATCC 27853
  effective concentration: 1.73 ppm
[5]
  downy mildew severity indexes: significantly lower downy mildew severity indexes than the check
Bacterial speck
  levels of bacterial speck (number of infected leaves) or disease severity ratings: did not have statistically different levels
[6]; higher concentrations of mucin
  log reduction, trend with compound concentration: log reduction decreased with a decrease in concentration of silver (III) periodate
[6]; higher concentrations of mucin (2% and 1%)
  effectiveness compared with the other compound: more effective than silver nitrate
[6]; lower concentrations of mucin (0.25%, 0.12% and 0.06%)
  log reduction, trend with compound concentration: log reduction was relatively unaffected by the changes in concentration
[6]; mucin 0.5%, 0.25%, 0.12% and 0.06%, lower compound concentrations
  effectiveness compared with the other compound: more effective than the lower tested concentrations of silver nitrate
[7]; after three treatment sprays
  disease severity on foliage: best at reducing disease severity on foliage
[7]; after two treatment sprays
  disease severity on foliage: best at reducing disease severity on foliage
[8]; 10% urine
  MBC cut-off point: 31.25 ppm
[8]; 100% urine
  MBC cut-off point: 250 ppm
[8]; 500 and 250 ppm, all tested concentrations of urine
  log reduction: approximately equal log reductions
[8]; compound concentrations of 125 ppm and below
  log reduction compared with the other compound: larger log reduction at the lower and middle concentrations
[8]; concentrations at 125 ppm and below, urine
  compound concentration giving the highest log reduction: 62.5 ppm
[9]; 0.1% and 0.01% human serum, low tested concentrations
  log reduction compared with silver nitrate: lower log reduction than silver nitrate
[9]; 50% and 10% human serum, even at concentrations as low as 7.8 ppm
  difference in log reduction over silver nitrate: 1.5-2.0 log reduction
[9]; human serum dilutions, in general, 4 hours, 500 to 7.8 ppm
  log reduction, trend with compound concentration: log reductions decreased with the decrease in concentrations of silver (III) periodate
[10]; 0.1%, 0.01%, 0.001% human serum, concentrations higher than 125 ppm
  log reduction: higher log reductions
[10]; 10% and 1% human serum, 31.25-125 ppm
  log reduction: Log reductions were higher
[11]; 0.001% human serum, 31.25-125 ppm
  log reduction compared with the other compound: higher log reductions
[11]; 0.1% and 0.01% human serum
  killing activity: no significant killing activity
[11]; high concentrations of human serum
  killing activity, silver (III) periodate vs silver nitrate: no significant differences
